Earlier results, collected in patent US20230226011A1, “Novel Pharmaceutical Composition Comprising Combination of Olopatadine and Nepafenac” (Zenvision Pharma LLP, priority 2020, published 2023).
Structures can show the parent of a compound that is named as a salt.

Details: for solubility in water: solvent water

Row | Compound | solubility in water | solubility in chloroform (solvent chloroform) | solubility in methanol (solvent methanol)
1 | NC(=O)Cc1cccc(C(=O)c2ccccc2)c1N [Nepafenac, 2-amino-3-benzoylbenzeneacetamide] | practically insoluble | – | –
2 | CN(C)CC/C=C1/c2ccccc2COc2ccc(CC(=O)O)cc21 [Olopatadine hydrochloride, 11-[(Z)-3(Dimethylamino)propylidene]-6-11-dihydrodibenz[b,e] oxepin-2-acetic acid, hydrochloride] | sparingly soluble | insoluble | sparingly soluble
